{
  "source": "patent US20030180345A1",
  "about": "“Compositions and methods for inhibiting islet dysfunction and autoimmune disorders” (priority 2000, published 2003)",
  "key": {"[1]": {"tested_on": "VEGF", "test": "Pancreatic VEGF immunoreactivity with dietary taurine supplementation", "format": "in vivo, Wistar rats", "settings": "decrease by low protein diet; regardless of developmental stage", "description": "(§1) Animals and diets were prepared as described in Example 8. The pancreas was removed, and the presence of Fas, Fas ligand, inducible nitric oxide synthase (iNOS) and vascular endothelial growth factor (VEGF) were evaluated in pancreatic sections using immunoreactivity."}, "[2]": {"settings": "taurine 0.3 mmol/l or 3 mmol/l; acellular", "description": "(§2) Nitric oxide is a reactive free radical which leads to peroxynitrite formation, another reactive free radical, by interaction with superoxide (NO+OO^−→ONOO^−). […] Luminol-derived chemiluminescence induced by peroxynitrite produced by the decomposition of sydnonimine (SIN-1) was evaluated to investigate the possibility that taurine quenched the peroxynitrite formed from NO."}, "[3]": {"tested_on": "Fas ligand", "test": "Islet Fas ligand immunoreactivity with dietary taurine supplementation", "format": "in vivo, Wistar rats", "settings": "post-natal day 14", "description": "as §1"}, "[4]": {"settings": "3 mmol/l taurine; SIN-1", "description": "Chemiluminescence measurements. Luminol (5-amino-2,3-dihydro-1-4-phtalazinedione) at 400 μmol/l (Sigma Chemical Co.), taurine (0.3 or 3 mmol/l), methionine (0.1 or 1 mmol/l) and β-alanine (0.3 or 3 mmol/l) stock solutions were prepared in PBS. Sydnonimine (SIN-1), also known as 3-morpholinosydnonimine, a source of peroxynitrite, was purchased from Sigma Chemical Co. SIN-1 was prepared as 100 μmol in 1 mol/l NaOH. A reaction was initiated by simultaneous injection of luminol and SIN-1 into wells containing PBS either alone or with supplemental amino acid levels as noted above. Chemiluminescence emitted by luminol in the presence of peroxynitrite was measured every 30 seconds over 20 minutes in a chemifluorophotometer (MicroLumat LB96P, EG&G BERTHOLD), and was quantified as light intensity (10^8 RLU).\nas §2"}, "[5]": {"tested_on": "fetal islet cells", "test": "IL1β-induced apoptosis in cultured fetal islets (TUNEL)", "format": "cell-based, Wistar rats", "settings": "IL1β 50 U/ml", "description": "The effect of in vitro taurine on the effect of IL1β-induced apoptosis was assessed. Fetal islets were isolated as described above in Example 1. On the 5th day of culture, islets were rinsed twice with serum free DME/F12 medium (1:1, v/v, Gibco, Paisley, Scotland) and were incubated in this medium supplemented with taurine at 0.3 or 3 mmol/l for 48 hours. For the final 24 hours of this incubation, IL1β (Endogen, Woburn, Mass.) was added to the incubation medium at a level of 50 U/ml. Apoptosis was quantified by confocal microscopy using TUNEL method, as outlined in Example 1."}, "[6]": {"tested_on": "islet cells", "test": "Islet cell apoptosis with maternal dietary taurine supplementation (TUNEL)", "format": "in vivo, Wistar rats", "description": "Animals and diets were prepared, and taurine supplementation in drinking water was conducted as described in Example 7. Islet cells were cultured and treated as described in Example 1. Islet cell apoptosis was determined using the TUNEL method, as described by […] et al., (Endocrinology 1999;140: 4861-4873). Four developmental stages were evaluated, namely: fetal day 21.5 ([…].5) or post-natal day 12 (PN12), 14 (PN14) or 30 (PN30)."}, "[7]": {"tested_on": "fetal islet β cells", "test": "Global cell death / mortality of cultured fetal islets (ethidium bromide permeability)", "format": "cell-based", "settings": "SNP (100 μmol/l); pre-treated with taurine 0.3 or 3 mmol/l; both diet groups; dose dependent", "description": "Global cell death. Global cell death was analysed using a non-specific staining permeant probe. For this purpose, the culture medium was removed and the dishes were incubated in the dark with 1 ml of 20 μg/ml ethidium bromide for 20 min to stain permeabilized dead cells. The cultures were then fixed with 4% paraformaldehyde in PBS for 10 min, treated with 30% methanol for permeabilization of the remaining of the cells and then mounted in mowiol containing 20 μg/ml of Hoechst 33342, to stain the nuclei.\nPhysiological and supraphysiological levels of each amino acid were tested. Taurine, if present was either 0.3 mmol/l (physiological) or 3 mmol/l (supraphysiological); methionine, if present was either 0.1 mmol/l (physiological) or 1 mmol/l (supraphysiological); and β-alanine, if present was either 0.3 mmol/l (physiological) or 3 mmol/l (supraphysiological). Supplemental amino acid levels were maintained in the culture medium during SNP treatment. […] Apoptosis was quantified by confocal microscopy using the TUNEL method described in Example 1. Mortality rate was quantified by confocal microscopy using permeant probes, as described in Example 1, to verify quantification of apoptotic rate for both C and LP diet treatments including SNP and taurine."}, "[8]": {"tested_on": "IGF-II", "test": "Islet IGF-II immunoreactivity with dietary taurine supplementation", "format": "in vivo, Wistar rats", "settings": "LP diet with taurine", "description": "Animals and diets were prepared as described in Example 7. The pancreas was removed, and IGF-II immunoreactivity was evaluated according to a method described by […] et al., (Endocrinology 1999;140: 4861-4873). Expression of IGF-II, considered a survival factor for cells, was measured as an indicator of the overall health of the β cells."}, "[9]": {"tested_on": "iNOS", "test": "Islet iNOS immunoreactivity with dietary taurine supplementation", "format": "in vivo, Wistar rats", "settings": "all stages", "description": "as §1"}, "[10]": {"tested_on": "NOD mice", "test": "Onset of diabetes (glucosurea) in female NOD offspring after maternal taurine supplementation", "format": "in vivo", "description": "Pregnant NOD mice were obtained and maintained on a control diet as described in Example 13. Pregnant mice were either supplemented with taurine in the drinking water (n=51) or were unsupplemented (n=37) throughout pregnancy. The supplemented group received taurine at a concentration of 2.5% (w/v) in drinking water. Considering the average amount of water consumed, this is equivalent to a taurine consumption of about 0.75 g/day per animal. Taurine supplementation ceased post-partum, and offspring were allowed to nurse for 21 days. […] Onset of diabetes was determined by the appearance of glucosurea which was assessed using glucose detection sticks."}},
  "data": [
    {"compound": "NCCS(=O)(=O)O", "note": "[taurine, 2-aminoethylsulfonic acid]", "values": [
      {"measurement": "VEGF immunoreactivity in the pancreas", "setting": "[1]", "result": "reverses the effect"},
      {"measurement": "concentration of NO released in the presence of SNP", "setting": "[2]", "result": "not significantly altered"},
      {"measurement": "Fas ligand presence in islets", "setting": "[3]", "result": "reduced"},
      {"measurement": "luminol chemiluminescence (peroxynitrite quenching)", "setting": "[4]", "result": "dramatically decreased"},
      {"measurement": "rate of IL1β-induced apoptosis in islet cells", "setting": "[5]; C diet group, only the high dose of taurine (3 mmol/l)", "result": "decreased significantly"},
      {"measurement": "number of islet cells positive for IL1β-induced apoptosis", "setting": "[5]; LP diet group, taurine 0.3 mmol/l and 3.0 mmol/l", "result": "significantly decreased"},
      {"measurement": "islet cell apoptosis", "setting": "[6]; LP+Taurine vs control group (C), F21.5, PN12, PN14, PN30", "result": "either no difference, or a reduction in apoptosis compared to the control group"},
      {"measurement": "islet cell apoptosis", "setting": "[6]; protein-sufficient (C) animals supplemented with taurine, post-natal days 12 and 14", "result": "reduction in apoptosis"},
      {"measurement": "mortality after treatment with SNP, percentage of cell death", "setting": "[7]", "result": "significantly diminished"},
      {"measurement": "IGF-II immunoreactivity", "setting": "[8]; fetal period (F21.5)", "result": "increased IGF-II immunoreactivity to a level consistent with the C diet animals"},
      {"measurement": "IGF-II immunoreactivity", "setting": "[8]; post-natal", "result": "restored IGF-II immunoreactivity levels to the point that the control IGF-II level was surpassed"},
      {"measurement": "iNOS immunoreactivity", "setting": "[9]", "result": "no effect"},
      {"measurement": "proportion of female offspring showing diabetes", "setting": "[10]; at 25 weeks, maternal taurine 2.5% (w/v) in drinking water during pregnancy", "result": "about half"},
      {"measurement": "proportion of taurine-supplemented group still not diabetic", "setting": "[10]; at 50 weeks", "result": "about 10%"}
    ]}
  ]
}
